The values below come from ChEMBL document CHEMBL5543064, “Interleukin-1β converting enzyme (ICE): A comprehensive review on discovery and development of caspase-1 inhibitors” (Eur J Med Chem, 2023).

pIC50, pKi: −log10 of the molar value.

A word on the pIC50: it is the negative decadic logarithm of the IC50, by convention in mol/L. The low end stands for a high IC50, the high end for a low IC50. The pKi is −log10 of the Ki, conventionally taken in molar units. In general, inhibition refers to the change of the read-out against control, counted positive when it falls. High values mean a strong effect, low ones a weak effect. A word on the mortality: it is the percentage killed. A word on the bioavailability: it is the share of a dose that reaches the circulation, judged against a reference dose that is usually intravenous. A high value points to good availability.

Series [1] deals with T1, Caspase-1 (Homo sapiens, UniProt P29466).
T1 sequence (P29466 whole entry): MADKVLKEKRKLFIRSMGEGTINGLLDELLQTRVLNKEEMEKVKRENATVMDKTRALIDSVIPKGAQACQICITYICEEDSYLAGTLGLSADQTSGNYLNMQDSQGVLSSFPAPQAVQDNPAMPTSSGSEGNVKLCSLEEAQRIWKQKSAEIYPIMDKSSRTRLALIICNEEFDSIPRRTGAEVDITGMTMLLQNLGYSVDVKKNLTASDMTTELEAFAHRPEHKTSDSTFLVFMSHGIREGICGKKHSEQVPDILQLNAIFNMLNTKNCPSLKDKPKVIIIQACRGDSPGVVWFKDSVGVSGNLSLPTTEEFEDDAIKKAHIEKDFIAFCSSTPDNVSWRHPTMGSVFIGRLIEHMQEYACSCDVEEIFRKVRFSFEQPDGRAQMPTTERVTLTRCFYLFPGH
Kind of series: Inhibition of Caspase-1 (unknown origin).

Series [2] addresses T1, Caspase-1. Kind of series: Binding affinity to caspase-1 (unknown origin) assessed as inhibition constant.
The target in series [3] is T2, Caspase-8 (Homo sapiens, UniProt Q14790). Kind of series: Binding affinity to Caspase-8 (unknown origin) using Ac-IETD-AFC as substrate assessed as inhibition constant.
T2 sequence (Q14790 217-374 limits assumed): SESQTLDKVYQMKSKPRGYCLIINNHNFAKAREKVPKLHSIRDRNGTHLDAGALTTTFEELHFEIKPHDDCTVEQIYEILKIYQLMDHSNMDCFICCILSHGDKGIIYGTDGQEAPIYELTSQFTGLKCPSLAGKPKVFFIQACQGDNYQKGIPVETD
T2 sequence (Q14790 385-479 limits assumed): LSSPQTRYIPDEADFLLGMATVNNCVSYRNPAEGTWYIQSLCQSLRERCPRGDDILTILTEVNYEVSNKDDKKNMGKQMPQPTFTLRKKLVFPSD
Series [4] deals with T1, Caspase-1. Kind of series: Inhibition of Interleukin-1beta-converting enzyme (unknown origin).
The target of series [5] is T1, Caspase-1. Kind of series: Inhibition of N-terminal His-tagged Caspase-1 (unknown origin).
A further series concerns the target Caspase-1 (Homo sapiens) (UniProt P29466). Kind of series: Binding affinity to caspase-1 (unknown origin) assessed as inhibition constant.
Series [6] deals with T1, Caspase-1. Kind of series: Binding affinity to N-terminal His-tagged Caspase-1 (unknown origin) assessed as inhibition constant.
Series [7] concerns the target Interleukin-1 beta (Homo sapiens) (UniProt P01584). Kind of series: Inhibition of human Interleukin-1beta at 30 uM relative to control.
Series [8] can be described thus: Toxicity in Sprague-Dawley rat assessed as […] mortality at 12.5 micromol/kg. The note with it: in vivo, 12.5 µmol/kg.
The target of series [9] is T2, Caspase-8. Kind of series: Inhibition of caspase-8 (unknown origin) by fluorescence based analysis.
Series [10] concerns the target T1, Caspase-1. Kind of series: Inhibition of caspase-1 (unknown origin) by fluorescence based analysis.
Series [11] can be described thus: Oral bioavailability in rat. The class given is ADME, organism-based. The note with it: in vivo.
Series [12] concerns the target T1, Caspase-1. Kind of series: Inhibition of caspase-1 (unknown origin) using Ac-Tyr-Val-Ala-Asp-AFC as fluorogenic substrate by fluorescence based analysis.
Series [13] concerns the target T1, Caspase-1. Kind of series: Binding affinity to human caspase-1 assessed as apparent inhibition constant. As to conditions: read-out: Ki(app).

Sequence of Interleukin-1 beta (Homo sapiens) (P01584 117-269 limits assumed): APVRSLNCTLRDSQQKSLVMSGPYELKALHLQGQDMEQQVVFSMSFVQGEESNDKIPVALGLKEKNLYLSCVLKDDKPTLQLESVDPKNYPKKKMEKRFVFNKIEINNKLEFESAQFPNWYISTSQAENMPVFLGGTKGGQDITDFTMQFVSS

At Caspase-1 [1], `CCC(C)(C)c1ccc(Oc2ccccc2S(=O)(=O)N[C@H](C=O)CC(=O)O)cc1` showed a pIC50 of 5.66.
`C[C@H](NC(=O)C(NC(=O)c1cc2ccccc2[nH]1)C(=O)O)C(=O)N[C@H](CN=[N+]=[N-])CC(=O)O` (some centres not stated) showed a pIC50 on Caspase-1 [1] of 7.12. Against the preceding compound, the pIC50 is 1.46 log units higher.
`C[C@H](NC(=O)[C@H](CCC(=O)O)NC(=O)OCc1ccccc1)C(=O)NC(CC(=O)O)C(=O)CNS(=O)(=O)CCc1ccccc1` (some centres not stated) showed a negative logarithm of the IC50 (pIC50) at Caspase-1 [1] of 7.70. On Caspase-1 [2], the pKi was 7.70.
Consider `O=C(CN1C(=O)[C@H](NC(=O)c2ccccc2)CN(C(=O)CCc2ccccc2)c2ccccc21)N[C@H]1CC(=O)OC1O` (some centres not stated), for which the pKi at Caspase-1 [2] is 6.07.
As for `CC(C)[C@H](NC(=O)CCc1ccccc1)C(=O)N[C@@H](C)C(=O)N[C@@H](CC(=O)O)C(=O)CCCc1ccccc1`, the pKi on Caspase-8 [3] is 7.00.
Compound `COC(=O)[C@]1(C)CC[C@]2(C)CC[C@]3(C)C4=CC=C5C(=CC(=O)C(O)=C5C)[C@]4(C)CC[C@@]3(C)[C@@H]2C1` [PRISTIMERIN] had a pIC50 at Caspase-1 [4] of 7.25.
Regarding `O=C(O)CC(NC(=O)C(NC(=O)OCc1ccccc1)c1ccccc1)C(=O)COC(=O)c1ccccc1` (configuration not stated), the pIC50 on Caspase-1 [5] was 6.09.
In the case of `CC(=O)N[C@@H](Cc1ccc(O)cc1)C(=O)N[C@H](C(=O)N[C@@H](C)C(=O)N[C@@H](CC(=O)O)C(=O)CCCCCc1ccccc1)C(C)C`, at Caspase-8 [3], the pKi was 7.73.
Take `O=C[C@H](CC(=O)O)NC(=O)[C@@H]1CCCN2C(=O)CC[C@H](NC(=O)c3ccc(OCC(=O)O)cc3)C(=O)N12`: the negative-log Ki (pKi) at Caspase-1 (Homo sapiens) is 9.00.
The compound `COC(=O)c1ccc(NC(=O)CCCCC(=O)Nc2ccc3c(c2)C(=O)C(=O)NC3=O)cc1` gave a pIC50 at Caspase-1 [4] of 7.72.
On to `C[C@H](NC(=O)C(NC(=O)c1ccc2ccccc2c1)C(=O)O)C(=O)N[C@H](CN=[N+]=[N-])CC(=O)O` (some centres not stated), for which the pIC50 at Caspase-1 [1] was 7.40.
For `CC(=O)N[C@H](C(=O)N[C@@H](CC(=O)O)C(=O)COC(=O)Cc1c(Cl)cccc1Cl)C(C)C`, the pKi at Caspase-1 [6] is 7.10.
With `CC(C)C(NC(=O)OCc1ccccc1)C(=O)N[C@@H](C)C(=O)NC(CC(=O)O)C(=O)CNS(=O)(=O)CCc1ccccc1` (some centres not stated), the pIC50 against Caspase-1 [1] is 6.15. Also, the pKi at Caspase-1 [2] was 8.40.
`O=c1cc(-c2ccccc2Cl)sn1-c1ccc(C(F)(F)F)cc1` gave an inhibition in series [7] of 83%.
As to `CC(C)[C@H](NC(=O)CCc1ccccc1)C(=O)N[C@@H](C)C(=O)N[C@@H](CC(=O)O)C(=O)CCc1ccccc1`, at Caspase-8 [3], the pKi was 6.21.
With `CC(=O)C[C@@H](C(=O)CCl)N(C(=O)[C@@H](NC(=O)[C@H](Cc1ccc(O)cc1)NC(C)=O)C(C)C)[C@@H](C)C(N)=O`, in series [8], the mortality came out at 33%.
Turning to `CCC(C)(C)c1ccc(Oc2ccccc2S(=O)(=O)N[C@H](C=O)CC(=O)O)cc1C`, the negative logarithm of the IC50 (pIC50) on Caspase-1 [1] is 6.00.
`O=CC(CC(=O)O)NC(=O)Cn1c(Cc2ccccc2)ccc(NC(=O)CCc2ccccc2)c1=O` (single isomer, unassigned): the pKi on Caspase-1 (Homo sapiens) is 6.82.
In the case of `O=C1C[C@H](NC(=O)[C@@H]2CCCN3C(=O)CC[C@H](NC(=O)c4nccc5ccccc45)C(=O)N23)[C@H](O)O1`, the pIC50 against Caspase-8 [9] is 9.92; on Caspase-1 [10] it was 8.89. Further, the bioavailability in series [11] was determined as 4%.
Consider `CC1=C(O)C(=O)C=C2C1=CC=C1[C@@]2(C)CC[C@@]2(C)[C@@H]3C[C@@H](C)C(=O)C[C@]3(C)CC[C@]12C` [TINGENONE], for which, on Caspase-1 [4], the pIC50 was 7.24.
With `O=C[C@H](CC(=O)O)NC(=O)Cn1c(-c2ccccc2)ccc(NC(=O)CCc2ccccc2)c1=O`, the pKi at Caspase-1 (Homo sapiens) was 6.05.
For `CCCCN(CC(=O)N[C@@H](CC(=O)O)C(=O)COc1ccccc1)C(=O)[C@@H](NC(=O)c1ccc2ccccc2c1)C(C)C`, the pIC50 against Caspase-1 [12] was 7.66.
The same measure, in the same setting: the same measure for `CC(C)[C@H](NC(=O)c1ccc2ccccc2c1)C(=O)N(CCCn1ccnc1)CC(=O)N[C@@H](CC(=O)O)C(=O)COc1ccccc1`: 7.89.
For the compound `CC(C)(NC(=O)CNC(=O)c1ccc2ccccc2c1)C(=O)N[C@H](CN=[N+]=[N-])CC(=O)O`, the pIC50 against Caspase-1 [1] was 8.10.
At Caspase-1 [4], `CC1=C(O)C(=O)C=C2C1=CC=C1[C@@]2(C)CC[C@@]2(C)[C@@H]3C[C@](C)(C(=O)O)CC[C@]3(C)CC[C@]12C` [CELASTROL] showed a pIC50 of 7.40.
For the compound `COC(=O)[C@]1(C)CC[C@]2(C)CC[C@]3(C)C4=CCc5c(cc(OC(C)=O)c(OC(C)=O)c5C)[C@]4(C)CC[C@@]3(C)[C@@H]2C1` [PRISTIMEROL DIACETATE], at Caspase-1 [4], the pIC50 is 7.10. This pIC50 is 0.30 log units lower than that of the compound before.
As for `O=C[C@H](CC(=O)O)NC(=O)CCCCCNC(=O)c1ccc(Nc2cnc3ccccc3n2)cc1`, on Caspase-1 [13], the pKi is 6.82.
At Caspase-1 [12], `CC(C)[C@H](NC(=O)c1ccc2ccccc2c1)C(=O)N1CCC[C@H]1C(=O)N[C@H](C=O)CC(=O)NS(C)(=O)=O` gave a pIC50 of 7.42.
On Caspase-1 [1], `O=C[C@H](CC(=O)O)NS(=O)(=O)c1ccccc1-c1cccc2ccccc12` showed a pIC50 of 4.94.
With `COC(=O)CC(NC(=O)C(NC(=O)OCc1ccccc1)c1ccccc1)C(=O)COC(=O)c1ccccc1` (configuration not stated), the pIC50 on Caspase-1 [5] is 5.25.
`CC(C(=O)NC(C=O)CC(=O)O)n1c(Cc2ccccc2)ccc(NC(=O)CCc2ccccc2)c1=O` (single isomer, unassigned): the pKi on Caspase-1 (Homo sapiens) was 6.01.
In series [7], `N#Cc1ccc(-n2sc(-c3ccccc3Cl)cc2=O)cc1` registered an inhibition of 89%.
Compound `Cc1cccc(S(=O)(=O)N[C@H](C=O)CC(=O)O)c1-c1ccccc1` showed a pIC50 at Caspase-1 [1] of 4.46.
The same measure, in the same setting: the same measure for `Cc1cc(Oc2ccccc2S(=O)(=O)N[C@H](C=O)CC(=O)O)ccc1C(C)C`: 6.00.
For `CC(=O)N[C@H](C(=O)N[C@@H](CC(=O)O)C(=O)COC(=O)Cc1c(Cl)ccc(Cl)c1Cl)C(C)C`, the negative logarithm of the Ki (pKi) on Caspase-1 [6] is 6.95.
`CC(C)C(NC(=O)c1ccc2ccccc2c1)C(=O)N[C@@H](C)C(=O)N[C@H](CN=[N+]=[N-])CC(=O)O` (some centres not stated) gave a pIC50 at Caspase-1 [1] of 8.34.
Consider `CC(=O)N[C@@H](Cc1ccc(O)cc1)C(=O)N[C@H](C(=O)N[C@@H](C)C(=O)N[C@@H](CC(=O)O)C(=O)CCCCc1ccccc1)C(C)C`, for which the pKi on Caspase-8 [3] was 7.38.
In series [7], `CCOC(=O)c1ccc(-n2sc(-c3ccccc3Cl)cc2=O)cc1` had an inhibition of 87%.
